Results reported in patent US20260217703A1, “INHIBITORS OF a-HEMOL YSIN OF STAPHYLOCOCCUS AUREUS” (HELMHOLTZ-ZENTRUM FÜR INFEKTIONSFORSCHUNG GMBH, priority 2022, published 2026).

Experiments:
[1] = biological target: S. aureus Alpha hemolysin (Staphylococcus aureus, UniProt P09616); experiment: cell-based
[2] = biological target: hemolysin alpha from Staphylococcus aureus (Staphylococcus aureus, UniProt P09616); experiment: cell-based
Sequence of hemolysin alpha from Staphylococcus aureus (P09616 27-319 limits assumed): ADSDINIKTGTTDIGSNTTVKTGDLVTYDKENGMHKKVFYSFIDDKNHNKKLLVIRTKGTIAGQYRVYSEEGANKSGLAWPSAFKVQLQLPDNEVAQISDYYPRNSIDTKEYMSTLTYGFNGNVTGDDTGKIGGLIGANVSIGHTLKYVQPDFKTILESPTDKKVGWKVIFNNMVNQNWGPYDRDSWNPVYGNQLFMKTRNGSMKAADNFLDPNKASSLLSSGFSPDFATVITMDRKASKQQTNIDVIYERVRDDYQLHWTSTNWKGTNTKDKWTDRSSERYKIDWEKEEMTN

Sequence of S. aureus Alpha hemolysin (P09616 27-319 limits assumed): as above

SMILES	IC50 [1]	IC50 [2]
Cc1nc2cc(-c3ccc(NS(=O)(=O)c4nc5[nH]c(=O)c(=O)[nH]c5cc4C)cc3Cl)cnc2o1 [Compound 39, N-(3-chloro-4-(2-methyloxazolo[5,4-b]pyridin-6-yl)phenyl)-7-methyl-2,3-dioxo-1,2,3,4-tetrahydropyrido[2,3-b]pyrazine-6-sulfonamide]	30 to 100 nM	< 30 nM
Cc1nc2cc(-c3ccc(NS(=O)(=O)c4nc5[nH]c(=O)c(=O)[nH]c5cc4C)cc3C)ccc2o1 [Compound 40, 7-methyl-N-(3-methyl-4-(2-methylbenzo[d]oxazol-5-yl)phenyl)-2,3-dioxo-1,2,3,4-tetrahydropyrido[2,3-b]pyrazine-6-sulfonamide]	30 to 100 nM	< 30 nM
Cc1cc2[nH]c(=O)c(=O)[nH]c2nc1S(=O)(=O)Nc1ccc(-c2ccc3oc(C4CC4)nc3c2)c(Cl)c1 [Compound 41, N-(3-chloro-4-(2-cyclopropylbenzo[d]oxazol-5-yl)phenyl)-7-methyl-2,3-dioxo-1,2,3,4-tetrahydropyrido[2,3-b]pyrazine-6-sulfonamide]	30 to 100 nM	< 30 nM
